According to patent publication US9662327B2 (AGIOS PHARMACEUTICALS, INC, priority 2011, dated 2017):
Like-named read-outs stand apart in the source and are kept apart here.

Target: IDH1 R132H (Homo sapiens (Human), UniProt O75874, R132H)
Assay: Assays for IDH1 R132H Inhibitors (NADPH/aKG, resazurin detection)
Format: biochemical
Conditions: IDH1 R132H enzyme
Summary of the method: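 Mutant enzyme in 150 mM NaCl, 10 mM MgCl2, 20 mM Tris pH 7.5, 0.03% BSA; compound in DMSO added to substrate mix of 8 uM NADPH and 2 mM aKG. Reaction ran 50 min at room temperature, then resazurin detection mix (30 μM) added for 5 min at room temperature.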

[1] = Table 2, read-out: IDHR132H Activity

Chain of IDH1 R132H (O75874 whole entry R132H): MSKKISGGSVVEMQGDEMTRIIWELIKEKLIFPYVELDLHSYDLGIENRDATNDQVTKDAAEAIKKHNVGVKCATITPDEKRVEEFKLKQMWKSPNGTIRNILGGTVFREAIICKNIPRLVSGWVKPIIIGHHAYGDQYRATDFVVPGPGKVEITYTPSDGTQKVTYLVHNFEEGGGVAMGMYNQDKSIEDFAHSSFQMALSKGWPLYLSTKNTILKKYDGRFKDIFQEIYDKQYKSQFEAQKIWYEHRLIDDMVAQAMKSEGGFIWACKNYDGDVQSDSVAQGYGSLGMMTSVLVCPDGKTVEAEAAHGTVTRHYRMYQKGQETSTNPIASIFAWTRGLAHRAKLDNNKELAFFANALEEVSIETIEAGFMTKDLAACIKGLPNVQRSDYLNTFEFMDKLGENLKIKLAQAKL

IC50 [1] [µM]	IC50 (Table 3, read-out: R132H IC50) [µM]	SMILES
1 to 10		C#CCNCC(=O)N1CCN(c2nc(C3CC3)c3c(c2C#N)CC(C)(C)OC3)C[C@H]1C(C)C [Compound 373, (R)-8-cyclopropyl-6-(3-isopropyl-4-(2-(prop-2-ynylamino)acetyl)piperazin-1-yl)-3,3-dimethyl-3,4-dihydro-1H-pyrano[3,4-c]pyridine-5-carbonitrile]
1 to 10		Cc1ccc(S(=O)(=O)N2CCN(c3nc(C4CC4)c4c(c3C#N)CC(C)(C)OC4)C[C@H]2C(C)C)cc1 [Compound 302, (R)-8-cyclopropyl-6-(3-isopropyl-4-tosylpiperazin-1-yl)-3,3-dimethyl-3,4-dihydro-1H-pyrano[3,4-c]pyridine-5-carbonitrile]
1 to 10		CCC1CN(c2nc(C(C)C)c3c(c2C#N)CC(C)(C)OC3)CCN1C(=O)c1ccoc1 (centres unmarked) [Compound 172, 6-(3-ethyl-4-(furan-3-carbonyl)piperazin-1-yl)-8-isopropyl-3,3-dimethyl-3,4-dihydro-1H-pyrano[3,4-c]pyridine-5-carbonitrile]
	0.5 to 1	C=CS(=O)(=O)N1CCc2c(C#N)c(N3CCN(C)CC3)nc(C3CC3)c2C1 [Compound 503]
0.5 to 1		CC(C)[C@@H]1CN(c2nc(C3CC3)c3c(c2C#N)CC(C)(C)OC3)CCN1C(=O)C1CCOC1 (some centres unmarked) [Compound 266]
1 to 10		C[C@@H]1CN(c2nc(C3CCCCC3)c3c(c2C#N)CCOC3)CCN1C(=O)c1ccsc1 [Compound 242, (R)-8-cyclohexyl-6-(3-methyl-4-(thiophene-3-carbonyl)piperazin-1-yl)-3,4-dihydro-1H-pyrano[3,4-c]pyridine-5-carbonitrile]
1 to 10		COC(=O)CN1CCN(c2nc(C3CCCCC3)c3c(c2C#N)CCOC3)C[C@H]1C [Compound 342, (R)-methyl 2-(4-(5-cyano-8-cyclohexyl-3,4-dihydro-1H-pyrano[3,4-c]pyridin-6-yl)-2-methylpiperazin-1-yl)acetate]
1 to 10		C[C@@H]1CN(c2nc(C3CCCCC3)c3c(c2C#N)CC(C)(C)OC3)CCN1C(=O)Cc1cccs1 [Compound 153, (R)-8-cyclohexyl-3,3-dimethyl-6-(3-methyl-4-(2-(thiophen-2-yl)acetyl)piperazin-1-yl)-3,4-dihydro-1H-pyrano[3,4-c]pyridine-5-carbonitrile]
1 to 10		N#Cc1c(N2CCN(C(=O)c3c[nH]c4ccccc34)CC2)nc(C2CCCCC2)c2c1CCOC2 [Compound 118, 6-(4-(1H-indole-3-carbonyl)piperazin-1-yl)-8-cyclohexyl-3,4-dihydro-1H-pyrano[3,4-c]pyridine-5-carbonitrile]
< 0.5		CC(C)[C@@H]1CN(c2nc(C3CC3)c3c(c2C#N)CC(C)(C)OC3)CCN1C(=O)c1ccoc1 [Compound 180, (R)-8-cyclopropyl-6-(4-(furan-3-carbonyl)-3-isopropylpiperazin-1-yl)-3,3-dimethyl-3,4-dihydro-1H-pyrano[3,4-c]pyridine-5-carbonitrile]
1 to 10		CC(C)[C@@H]1CN(c2nc(C3CC3)c3c(c2C#N)CC(C)(C)OC3)CCN1C(=O)Cn1ncc2ccccc21 [Compound 405, (R)-6-(4-(2-(1H-indazol-1-yl)acetyl)-3-isopropylpiperazin-1-yl)-8-cyclopropyl-3,3-dimethyl-3,4-dihydro-1H-pyrano[3,4-c]pyridine-5-carbonitrile]
< 0.5		CC[C@@H]1CN(c2nc(C(C)C)c3c(c2C#N)CC(C)(C)OC3)CCN1C(=O)c1ccoc1C [Compound 207, (R)-6-(3-ethyl-4-(2-methylfuran-3-carbonyl)piperazin-1-yl)-8-isopropyl-3,3-dimethyl-3,4-dihydro-1H-pyrano[3,4-c]pyridine-5-carbonitrile]
	0.5 to 1	CC(C)[C@@H]1CN(c2nc(C3CC3)c3c(c2C#N)CC(C)(C)OC3)CCN1C(=O)CS(C)(=O)=O [Compound 446, (R)-8-cyclopropyl-6-(3-isopropyl-4-(2-(methylsulfonyl)acetyl)piperazin-1-yl)-3,3-dimethyl-3,4-dihydro-1H-pyrano[3,4-c]pyridine-5-carbonitrile]
1 to 10		CCOC(=O)N1CCN(c2nc(C3CC3)c3c(c2C#N)CC(C)(C)OC3)C[C@H]1C(C)C [Compound 367]
1 to 10		CC(C)[C@@H]1CN(c2nc(C3CC3)c3c(c2C#N)CC(C)(C)OC3)CCN1C(=O)COc1cccc(F)c1 [Compound 384]
1 to 10		CC(C)[C@@H]1CN(c2nc(C3CC3)c3c(c2C#N)CC(C)(C)OC3)CCN1C(=O)OC(C)(C)C [Compound 306, (R)-tert-butyl 4-(5-cyano-8-cyclopropyl-3,3-dimethyl-3,4-dihydro-1H-pyrano[3,4-c]pyridin-6-yl)-2-isopropylpiperazine-1-carboxylate]

IC50 [1] [µM]	IC50 (Table 3, read-out: R132H IC50) [µM]	SMILES
1 to 10		C[C@@H]1CN(c2nc(C3CCCCC3)c3c(c2C#N)CCOC3)CCN1C(=O)Cc1ccccn1 [Compound 238, (R)-8-cyclohexyl-6-(3-methyl-4-(2-(pyridin-2-yl)acetyl)piperazin-1-yl)-3,4-dihydro-1H-pyrano[3,4-c]pyridine-5-carbonitrile]
1 to 10		N#Cc1c(N2CCN(C(=O)c3cccc4[nH]ccc34)CC2)nc(C2CCCCC2)c2c1CCOC2 [Compound 119, 6-(4-(1H-indole-4-carbonyl)piperazin-1-yl)-8-cyclohexyl-3,4-dihydro-1H-pyrano[3,4-c]pyridine-5-carbonitrile]
< 0.5		CC(C)c1nc(N2CCN(C(=O)c3ccoc3)[C@H](C(C)C)C2)c(C#N)c2c1COC(C)(C)C2 [Compound 165, (R)-6-(4-(furan-3-carbonyl)-3-isopropylpiperazin-1-yl)-8-isopropyl-3,3-dimethyl-3,4-dihydro-1H-pyrano[3,4-c]pyridine-5-carbonitrile]
1 to 10		CCOC(=O)N1CCN(c2nc(C3CCCCC3)c3c(c2C#N)CCOC3)C[C@H]1C [Compound 358, (R)-ethyl 4-(5-cyano-8-cyclohexyl-3,4-dihydro-1H-pyrano[3,4-c]pyridin-6-yl)-2-methylpiperazine-1-carboxylate]
1 to 10		N#Cc1c(N2CCN(C(=O)c3ccc4cc[nH]c4c3)CC2)nc(C2CCCCC2)c2c1CCOC2 [Compound 123, 6-(4-(1H-indole-6-carbonyl)piperazin-1-yl)-8-cyclohexyl-3,4-dihydro-1H-pyrano[3,4-c]pyridine-5-carbonitrile]
1 to 10		CCCNC(=O)N1CCN(c2nc(C3CC3)c3c(c2C#N)CC(C)(C)OC3)C[C@H]1C(C)C [Compound 350, (R)-4-(5-cyano-8-cyclopropyl-3,3-dimethyl-3,4-dihydro-1H-pyrano[3,4-c]pyridin-6-yl)-2-isopropyl-N-propylpiperazine-1-carboxamide]
1 to 10		COCCC(=O)N1CCN(c2nc(C3CC3)c3c(c2C#N)CC(C)(C)OC3)CC1COC (centres unmarked) [Compound 403, 8-cyclopropyl-6-(3-(methoxymethyl)-4-(3-methoxypropanoyl)piperazin-1-yl)-3,3-dimethyl-3,4-dihydro-1H-pyrano[3,4-c]pyridine-5-carbonitrile]
0.5 to 1		CC(C)c1nc(N2CCN(C(=O)c3ccco3)C(c3ccccc3)C2)c(C#N)c2c1COC(C)(C)C2 (centres unmarked) [Compound 154, 6-(4-(furan-2-carbonyl)-3-phenylpiperazin-1-yl)-8-isopropyl-3,3-dimethyl-3,4-dihydro-1H-pyrano[3,4-c]pyridine-5-carbonitrile]
1 to 10		CC(C)c1nc(N2CCN(C(=O)c3ccoc3)C(C)C2)c(C#N)c2c1COC(C)(C)C2 (centres unmarked) [Compound 138, 6-(4-(furan-3-carbonyl)-3-methylpiperazin-1-yl)-8-isopropyl-3,3-dimethyl-3,4-dihydro-1H-pyrano[3,4-c]pyridine-5-carbonitrile]
1 to 10		CC(C)[C@@H]1CN(c2nc(C3CC3)c3c(c2C#N)CC(C)(C)OC3)CCN1C(=O)OCC1CC1 [Compound 370, (R)-cyclopropylmethyl 4-(5-cyano-8-cyclopropyl-3,3-dimethyl-3,4-dihydro-1H-pyrano[3,4-c]pyridine-6-yl)-2-isopropylpiperazine-1-carboxylate]
1 to 10		COc1ccc(NC(=O)N2CCN(c3nc(C4CC4)c4c(c3C#N)CC(C)(C)OC4)C[C@H]2C(C)C)cc1 [Compound 316, (R)-4-(5-cyano-8-cyclopropyl-3,3-dimethyl-3,4-dihydro-1H-pyrano[3,4-c]pyridin-6-yl)-2-isopropyl-N-(4-methoxyphenyl)piperazine-1-carboxamide]
1 to 10		CC(C)c1nc(N2CCN(C(=O)Cc3cc(F)cc(F)c3)[C@H](C)C2)c(C#N)c2c1COC(C)(C)C2 [Compound 159, (R)-6-(4-(2-(3,5-difluorophenyl)acetyl)-3-methylpiperazin-1-yl)-8-isopropyl-3,3-dimethyl-3,4-dihydro-1H-pyrano[3,4-c]pyridine-5-carbonitrile]
1 to 10		N#Cc1c(N2CCN(C(=O)c3ccco3)CC2)nc(C2CCCCC2)c2c1CCOC2 [Compound 110, 8-cyclohexyl-6-(4-(furan-2-carbonyl)piperazin-1-yl)-3,4-dihydro-1H-pyrano[3,4-c]pyridine-5-carbonitrile]
1 to 10		CC(C)[C@@H]1CN(c2nc(C3CC3)c3c(c2C#N)CC(C)(C)OC3)CCN1C(=O)CCC(=O)O [Compound 416, (R)-4-(4-(5-cyano-8-cyclopropyl-3,3-dimethyl-3,4-dihydro-1H-pyrano[3,4-c]pyridin-6-yl)-2-isopropylpiperazin-1-yl)-4-oxobutanoic acid]
1 to 10		CC1(C)Cc2c(C#N)c(N3CCN(C(=O)c4ccco4)CC3)nc(C3CCCCC3)c2CO1 [Compound 117, 8-cyclohexyl-6-(4-(furan-2-carbonyl)piperazin-1-yl)-3,3-dimethyl-3,4-dihydro-1H-pyrano[3,4-c]pyridine-5-carbonitrile]
1 to 10		C[C@@H]1CN(c2nc(C3CCCCC3)c3c(c2C#N)CCOC3)CCN1C(=O)Cc1cccnc1 [Compound 260, (R)-8-cyclohexyl-6-(3-methyl-4-(2-(pyridin-3-yl)acetyl)piperazin-1-yl)-3,4-dihydro-1H-pyrano[3,4-c]pyridine-5-carbonitrile]
